According to patent US10501462B2, “Pyrrolo[3,2-c]pyridine-6-amino derivatives” (CANCER RESEARCH TECHNOLOGY LIMITED, priority 2015, dated 2019):
Like-named read-outs stand apart in the source and are kept apart here.

What was measured:
[1] = Human liver microsomal stability (HLM assay); format: in vitro ADME; settings: human liver microsomes 1 mg/mL, 10 μmol/L test compound, 37° C.
Procedure: The human liver microsomal stability of the compounds of the invention was tested using the following procedure:
Mixed gender pooled human liver microsomes were purchased from Tebu-bio (Peterborough, U.K.). Samples contained final concentrations of 1 mg/mL microsomal protein, 3 mmol/L MgCl2, 1 mmol/L NADPH, 2.5 mmol/L, UDP-glucuronic acid, and 10 mmol/L phosphate buffer (pH 7.4) (all purchased from Sigma Aldrich, Gilingham, U.K). Reactions, at 37° C., were started by addition of 10 μmol/L test compound and were terminated at 0, 15 and 30 minutes by the addition of 3 volumes of ice-cold methanol containing internal standard. Samples were centrifuged at 2,800×g for 30 minutes at 4° C. and the supernatants analyzed. Control incubations were prepared as above with omission of cofactors. […]

[2] = Pharmacokinetic profile in mice (Mouse PK); format: in vivo; settings: female, BALB/c, whole blood, 5 mg/kg, i.v. and p.o. at 5 mg/kg
Procedure: The pharmacokinetic profile of the compounds of the invention was assessed using the following procedure:
Female BALB/c mice (approximately 8 weeks old) from Charles River UK Ltd. (Margate, United Kingdom) were kept in a controlled environment with food and sterilized water available ad libitum. Animals weighed 20±3 g at the time of experiment. Dosing solutions were prepared by dissolving the compounds in 10% DMSO, 5% Tween 20 and 85% saline. The compounds were administered i.v. and p.o. at 5 mg/kg. Animals were warmed before receiving a single i.v. bolus injection into a lateral tail vein. P.o. administration was by gavage. Control animals received the vehicle alone. Groups of three mice were injected per dose route. Blood was collected at 5, 15 and 30 minutes and at 1, 2, 4 and 6 and 24 hours by serial sampling from the tail vein of individual mice after warming using sodium heparin-coated capillaries and 20 μl blood spotted onto Whatman FTA DMPK-B cards.
Calibration standards and QCs were prepared in tail vein blood. 20 μl blood spotted onto Whatman FTA DMPK-B cards. When dry, all standard, QC and sample spots were punched with a Harris Unicore 6 mm punch and 200 μl of methanol containing internal standard was added. Samples were centrifuged for 5 minutes and supernatant taken for analysis by LC-MS. […]

[3] = system: HCT116 cells; assay: MTT cell toxicity assay; format: cell-based; settings: Homo sapiens, HCT-116, 72 h incubation
Procedure: Cell proliferation assays were carried out using a colorimetric 3-(4,5-dimethylthiazol-2-yl)-2,5-diphenyltetrazolium bromide (MTT) assay (Sigma). 1.5×10^3 HCT116 cells, purchased from ATCC, were plated in 96-well plates at in 100 μL of culture medium in triplicates. Next day three fold dilutions of the compounds to be tested were made in culture medium so that, when diluted, the final concentration in the wells ranged from 0 to 10 μM. 25 μL of compounds dilutions in the medium was added to 100 μL of cells and incubated at 37° C. and 5% CO2 for 72 h. Cells were then incubated with 40 μL of 5 mg/mL MTT reagent at 37° C. for 3 h. The medium was carefully removed and crystals dissolved in 100 μL of DMSO. The absorbance was measured at 570 nm with the Wallac VICTOR2 1420 Multilabel Counter (PerkinElmer) and analysis performed to calculate the GI50 using GraphPad PRISM.

[4] = molecular target: T1, full length Mps1 (Homo sapiens, UniProt P33981); assay: Measurement of inhibition of Mps1 kinase (Caliper EZ reader, H236 peptide); format: biochemical; settings: full length Mps1, 60 min at room temperature
T1 construct: black 384-well low volume plates containing full length Mps1 (12.5 nM or 3 nM)
T1 sequence (P33981 1-857): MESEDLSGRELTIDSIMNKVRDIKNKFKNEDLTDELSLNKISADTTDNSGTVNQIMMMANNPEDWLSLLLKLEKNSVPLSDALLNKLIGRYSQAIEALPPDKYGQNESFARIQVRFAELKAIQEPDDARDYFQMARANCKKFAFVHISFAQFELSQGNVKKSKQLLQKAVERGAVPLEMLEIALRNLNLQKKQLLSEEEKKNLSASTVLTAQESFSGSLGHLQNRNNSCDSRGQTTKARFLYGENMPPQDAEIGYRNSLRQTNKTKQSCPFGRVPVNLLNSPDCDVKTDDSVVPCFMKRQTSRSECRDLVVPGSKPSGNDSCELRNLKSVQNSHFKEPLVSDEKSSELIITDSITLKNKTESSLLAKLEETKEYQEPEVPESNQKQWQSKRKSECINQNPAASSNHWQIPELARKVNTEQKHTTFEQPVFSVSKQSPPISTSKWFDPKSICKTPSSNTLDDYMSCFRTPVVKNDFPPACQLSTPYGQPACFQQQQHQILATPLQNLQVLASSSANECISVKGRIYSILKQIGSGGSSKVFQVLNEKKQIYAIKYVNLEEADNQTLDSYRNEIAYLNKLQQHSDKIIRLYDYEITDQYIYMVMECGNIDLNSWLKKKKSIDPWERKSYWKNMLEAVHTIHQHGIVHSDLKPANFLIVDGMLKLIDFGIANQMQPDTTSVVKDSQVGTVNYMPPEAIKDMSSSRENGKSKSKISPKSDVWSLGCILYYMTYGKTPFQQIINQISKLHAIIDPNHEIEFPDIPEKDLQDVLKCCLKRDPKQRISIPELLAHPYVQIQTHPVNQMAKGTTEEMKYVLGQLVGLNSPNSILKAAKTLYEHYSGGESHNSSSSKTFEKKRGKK
Procedure: The enzyme reaction (total volume 10 μl) was carried out in black 384-well low volume plates containing full length Mps1 (12.5 nM or 3 nM), fluorescent labelled peptide [known as H236, which has the sequence: 5FAM-[…]-CONH2] (5 μM), ATP ([…]), either DMSO (1% v/v) or the test compound (in the range 0.25 nM-100 μM in 1% DMSO) and assay buffer (50 mM HEPES (pH 7.0), 0.02% NaN3, 0.01% BSA, 0.1 mM Orthovandate, […], […], Roche protease inhibitor). The reaction was carried out for 60 min at room temperature and stopped by the addition of buffer (10 μl) containing 20 mM EDTA, 0.05% (v/v) Brij-35, in 0.1M HEPES-buffered saline (Free acid, Sigma, UK). The plate was read on a Caliper EZ reader II (Caliper Life Sciences).
The % inhibition of the compounds is calculated relative to the means of selected control wells. […] The % inhibitions at each concentration are then fitted to a 4 parameter logistic fit: y=(a+((b−a)/(1+((c/x^d)))) where a=asym min, b=asym max, c=IC50 and d=hill coefficient

[5] = read-out: MTT assay HCT116 GI50
[6] = read-out: GI50 in the MTT assay

HLM Assay (% of parent compound degraded at 30 minutes) [1] | clearance [2] | IC50 [4] | Structure (SMILES) | GI50 [3, 5] | GI50 [3, 6]
22.1% | 5 mL/min/kg |  | Cn1cc(C2=[N+](C(=O)OC(C)(C)C)c3cc(Nc4ccc(-c5nncn5C)cc4Cl)ncc3C2)cn1 [Comparator 1, reference compound] | 360 nM | 
39% |  |  | Cn1cc(C2=[N+](C(=O)OC(C)(C)C)c3cc(Nc4ccc(-c5ccnn5C)cc4Cl)ncc3C2)cn1 [Comparator 3, reference compound] | 548 nM | 
 | < 3.5 mL/min/kg | 1.2 nM | COc1cc(-c2cnnn2C)ccc1Nc1cc2c(cn1)cc(-c1cnn(C)c1)n2C(=O)OC(C)C [Example 1, Isopropyl 6-(2-methoxy-4-(1-methyl-1H-1,2,3-triazol-5-yl)phenylamino)-2-(1-methyl-1H-pyrazol-4-yl)-1H-pyrrolo[3,2-c]pyridine-1-carboxylate] | 59.4 nM | ≤ 150 nM
 |  | 2.8 nM | COc1cc(-c2nnnn2C)ccc1Nc1cc2c(cn1)cc(-c1cnn(C)c1)n2C(=O)OC(C)C [Example 2, Isopropyl 6-(2-methoxy-4-(1-methyl-1H-tetrazol-5-yl)phenylamino)-2-(1-methyl-1H-pyrazol-4-yl)-1H-pyrrolo[3,2-c]pyridine-1-carboxylate] | 104 nM | ≤ 150 nM
